Test results taken from PubChem BioAssay AID248 (DTP/NCI, 2004).
Where “and” joins values, the source holds several entries; their conditions need not be identical. Equal entries are not always repeated. Toxic doses and inconclusive results are not listed.

System: L1210 leukemia ip in BDF1 mice, survival T/C
Experiment: NCI In Vivo Anticancer Drug Screen. Data for tumor model L1210 Leukemia (intraperitoneal) in B6D2F1 (BDF1) mice
Details: higher = longer survival
Procedure, shortened: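 Tumor was transplanted into mice, which were then dosed with test compound or vehicle alone. Survival was recorded for each group, and the treated figure was expressed relative to the control figure.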

SMILES: O=C(CCBr)N1CCN(C(=O)CCBr)CC1
- T/C (endpoint: mean survival time, dose: 1.33 mg/kg/injection, schedule: Q#B X Z (ip), vehicle: carboxymethylcellulose (CMC)): 86 % of control
- T/C (endpoint: mean survival time, dose: 2.66 mg/kg/injection, schedule: Q#B X Z (ip), vehicle: carboxymethylcellulose (CMC)): 108 % of control
- T/C (endpoint: mean survival time, dose: 3.2 mg/kg/injection, schedule: Q01DX Z (oral), vehicle: carboxymethylcellulose (CMC)): 100 % of control
- T/C (endpoint: mean survival time, dose: 5.33 mg/kg/injection, schedule: Q#B X Z (ip), vehicle: carboxymethylcellulose (CMC)): 103 % of control
- T/C (endpoint: mean survival time, dose: 5.5 mg/kg/injection, schedule: Q07DX006 (ip), vehicle: carboxymethylcellulose (CMC)): 111 % of control
- T/C (endpoint: mean survival time, dose: 5.6 mg/kg/injection, schedule: Q01DX Z (ip), vehicle: methylcellulose (MC)): 120 % of control
- T/C (endpoint: mean survival time, dose: 10.0 mg/kg/injection, schedule: Q01DX009 (ip), vehicle: saline): 94 % of control and 102 % of control
- T/C (endpoint: mean survival time, dose: 10.6 mg/kg/injection, schedule: Q01DX Z (ip), vehicle: carboxymethylcellulose (CMC)): 108 % of control and 117 % of control
- T/C (endpoint: mean survival time, dose: 10.66 mg/kg/injection, schedule: Q#B X Z (ip), vehicle: carboxymethylcellulose (CMC)): 86 % of control
- T/C (endpoint: mean survival time, dose: 10.9 mg/kg/injection, schedule: Q07DX006 (ip), vehicle: carboxymethylcellulose (CMC)): 90 % of control
- T/C (endpoint: mean survival time, dose: 11.25 mg/kg/injection, schedule: Q01DX Z (ip), vehicle: methylcellulose (MC)): 115 % of control
- T/C (endpoint: mean survival time, dose: 12.0 mg/kg/injection, schedule: Q01DX006 (iv), vehicle: carboxymethylcellulose (CMC)): 113 % of control
- T/C (endpoint: mean survival time, dose: 12.0 mg/kg/injection, schedule: Q01DX Z (im), vehicle: carboxymethylcellulose (CMC)): 101 % of control
- T/C (endpoint: mean survival time, dose: 12.0 mg/kg/injection, schedule: Q01DX Z (ip), vehicle: carboxymethylcellulose (CMC)): 95 % of control
- T/C (endpoint: mean survival time, dose: 12.0 mg/kg/injection, schedule: Q01DX Z (sc), vehicle: carboxymethylcellulose (CMC)): 94 % of control
- T/C (endpoint: mean survival time, dose: 12.5 mg/kg/injection, schedule: Q01DX Z (oral), vehicle: carboxymethylcellulose (CMC)): 110 % of control
- T/C (endpoint: mean survival time, dose: 16.0 mg/kg/injection, schedule: Q01DX Z (ip), vehicle: carboxymethylcellulose (CMC)): 111 % of control
- T/C (endpoint: mean survival time, dose: 18.0 mg/kg/injection, schedule: Q01DX009 (ip), vehicle: saline): 155 % of control and 158 % of control
- T/C (endpoint: mean survival time, dose: 20.0 mg/kg/injection, schedule: Q01DX009 (ip), vehicle: saline): 103 % of control and 108 % of control
- T/C (endpoint: mean survival time, dose: 21.8 mg/kg/injection, schedule: Q07DX006 (ip), vehicle: carboxymethylcellulose (CMC)): 106 % of control
- T/C (endpoint: mean survival time, dose: 24.0 mg/kg/injection, schedule: Q01DX Z (ip), vehicle: carboxymethylcellulose (CMC)): 111 % of control
- T/C (endpoint: mean survival time, dose: 25.0 mg/kg/injection, schedule: Q01DX001 (ip), vehicle: saline): 99 % of control and 106 % of control and 111 % of control
- T/C (endpoint: mean survival time, dose: 25.0 mg/kg/injection, schedule: Q01DX006 (iv), vehicle: carboxymethylcellulose (CMC)): 94 % of control
- T/C (endpoint: mean survival time, dose: 25.0 mg/kg/injection, schedule: Q01DX Z (im), vehicle: carboxymethylcellulose (CMC)): 94 % of control
- T/C (endpoint: mean survival time, dose: 25.0 mg/kg/injection, schedule: Q01DX Z (ip), vehicle: carboxymethylcellulose (CMC)): 98 % of control
- T/C (endpoint: mean survival time, dose: 25.0 mg/kg/injection, schedule: Q01DX Z (oral), vehicle: carboxymethylcellulose (CMC)): 120 % of control
- T/C (endpoint: mean survival time, dose: 25.0 mg/kg/injection, schedule: Q01DX Z (sc), vehicle: carboxymethylcellulose (CMC)): 103 % of control
- T/C (endpoint: mean survival time, dose: 36.0 mg/kg/injection, schedule: Q01DX009 (ip), vehicle: saline): 160 % of control and 186 % of control
- T/C (endpoint: mean survival time, dose: 36.0 mg/kg/injection, schedule: Q01DX Z (ip), vehicle: carboxymethylcellulose (CMC)): 150 % of control
- T/C (endpoint: mean survival time, dose: 37.0 mg/kg/injection, schedule: Q03DX008 (ip), vehicle: carboxymethylcellulose (CMC)): 104 % of control
- T/C (endpoint: mean survival time, dose: 45.0 mg/kg/injection, schedule: Q01DX Z (ip), vehicle: methylcellulose (MC)): 172 % of control
- T/C (endpoint: mean survival time, dose: 50.0 mg/kg/injection, schedule: Q01DX001 (ip), vehicle: saline): 110 % of control and 111 % of control and 116 % of control
- T/C (endpoint: mean survival time, dose: 50.0 mg/kg/injection, schedule: Q01DX006 (iv), vehicle: carboxymethylcellulose (CMC)): 113 % of control
- T/C (endpoint: mean survival time, dose: 50.0 mg/kg/injection, schedule: Q01DX Z (im), vehicle: carboxymethylcellulose (CMC)): 110 % of control
- T/C (endpoint: mean survival time, dose: 50.0 mg/kg/injection, schedule: Q01DX Z (ip), vehicle: carboxymethylcellulose (CMC)): 123 % of control
- T/C (endpoint: mean survival time, dose: 50.0 mg/kg/injection, schedule: Q01DX Z (sc), vehicle: carboxymethylcellulose (CMC)): 116 % of control
- T/C (endpoint: mean survival time, dose: 54.0 mg/kg/injection, schedule: Q01DX009 (ip), vehicle: saline): 183 % of control and 208 % of control
- T/C (endpoint: mean survival time, dose: 81.0 mg/kg/injection, schedule: Q01DX Z (ip), vehicle: carboxymethylcellulose (CMC)): 117 % of control
- T/C (endpoint: mean survival time, dose: 90.0 mg/kg/injection, schedule: Q01DX Z (ip), vehicle: methylcellulose (MC)): 155 % of control
- T/C (endpoint: mean survival time, dose: 100.0 mg/kg/injection, schedule: Q01DX001 (ip), vehicle: carboxymethylcellulose (CMC)): 103 % of control and 110 % of control
- T/C (endpoint: mean survival time, dose: 100.0 mg/kg/injection, schedule: Q01DX001 (ip), vehicle: saline): 121 % of control
- T/C (endpoint: mean survival time, dose: 100.0 mg/kg/injection, schedule: Q01DX006 (iv), vehicle: carboxymethylcellulose (CMC)): 123 % of control
- T/C (endpoint: mean survival time, dose: 100.0 mg/kg/injection, schedule: Q01DX Z (ip), vehicle: carboxymethylcellulose (CMC)): 155 % of control
- T/C (endpoint: mean survival time, dose: 100.0 mg/kg/injection, schedule: Q01DX Z (oral), vehicle: carboxymethylcellulose (CMC)): 162 % of control
- T/C (endpoint: mean survival time, dose: 100.0 mg/kg/injection, schedule: Q04DX003 (ip), vehicle: saline): 111 % of control
- T/C (endpoint: mean survival time, dose: 120.0 mg/kg/injection, schedule: Q01DX009 (ip), vehicle: saline): 202 % of control and 218 % of control
- T/C (endpoint: mean survival time, dose: 150.0 mg/kg/injection, schedule: Q03DX008 (ip), vehicle: carboxymethylcellulose (CMC)): 205 % of control
- T/C (endpoint: mean survival time, dose: 200.0 mg/kg/injection, schedule: Q01DX001 (ip), vehicle: carboxymethylcellulose (CMC)): 108 % of control and 124 % of control
- T/C (endpoint: mean survival time, dose: 200.0 mg/kg/injection, schedule: Q01DX Z (im), vehicle: carboxymethylcellulose (CMC)): 158 % of control
- T/C (endpoint: mean survival time, dose: 200.0 mg/kg/injection, schedule: Q01DX Z (ip), vehicle: carboxymethylcellulose (CMC)): 162 % of control
- T/C (endpoint: mean survival time, dose: 200.0 mg/kg/injection, schedule: Q01DX Z (oral), vehicle: carboxymethylcellulose (CMC)): 90 % of control
- T/C (endpoint: mean survival time, dose: 200.0 mg/kg/injection, schedule: Q01DX Z (sc), vehicle: carboxymethylcellulose (CMC)): 158 % of control
- T/C (endpoint: mean survival time, dose: 300.0 mg/kg/injection, schedule: Q03DX008 (ip), vehicle: carboxymethylcellulose (CMC)): 181 % of control
- T/C (endpoint: mean survival time, dose: 350.0 mg/kg/injection, schedule: Q07DX004 (ip), vehicle: carboxymethylcellulose (CMC)): 215 % of control
- T/C (endpoint: mean survival time, dose: 400.0 mg/kg/injection, schedule: Q01DX001 (ip), vehicle: carboxymethylcellulose (CMC)): 102 % of control
- T/C (endpoint: mean survival time, dose: 400.0 mg/kg/injection, schedule: Q01DX001 (ip), vehicle: saline): 114 % of control
- T/C (endpoint: mean survival time, dose: 400.0 mg/kg/injection, schedule: Q01DX Z (im), vehicle: carboxymethylcellulose (CMC)): 100 % of control
- T/C (endpoint: mean survival time, dose: 400.0 mg/kg/injection, schedule: Q01DX Z (ip), vehicle: carboxymethylcellulose (CMC)): 94 % of control
- T/C (endpoint: mean survival time, dose: 400.0 mg/kg/injection, schedule: Q01DX Z (sc), vehicle: carboxymethylcellulose (CMC)): 98 % of control
- T/C (endpoint: mean survival time, dose: 400.0 mg/kg/injection, schedule: Q04DX003 (ip), vehicle: saline): 153 % of control and 180 % of control
- T/C (endpoint: mean survival time, dose: 600.0 mg/kg/injection, schedule: Q03DX003 (ip), vehicle: carboxymethylcellulose (CMC)): 90 % of control
- T/C (endpoint: mean survival time, dose: 700.0 mg/kg/injection, schedule: Q07DX004 (ip), vehicle: carboxymethylcellulose (CMC)): 100 % of control
- T/C (endpoint: mean survival time, dose: 800.0 mg/kg/injection, schedule: Q01DX001 (ip), vehicle: carboxymethylcellulose (CMC)): 98 % of control and 116 % of control
- T/C (endpoint: median survival time, dose: 10.0 mg/kg/injection, schedule: Q01DX009 (ip), vehicle: saline): 105 % of control and 87 % of control
- T/C (endpoint: median survival time, dose: 40.0 mg/kg/injection, schedule: Q01DX009 (ip), vehicle: saline): 150 % of control
- T/C (endpoint: median survival time, dose: 80.0 mg/kg/injection, schedule: Q01DX009 (ip), vehicle: saline): 181 % of control and 183 % of control

SMILES: CC/C(=C\c1cccc([N+](=O)[O-])c1)C(=O)O
- T/C (endpoint: mean survival time, dose: 100.0 mg/kg/injection, schedule: Q01DX009 (ip), vehicle: Klucel (hydroxypropylcellulose) (HPC)): 97 % of control
- T/C (endpoint: mean survival time, dose: 100.0 mg/kg/injection, schedule: Q04DX003 (ip), vehicle: Klucel (hydroxypropylcellulose) (HPC)): 96 % of control
- T/C (endpoint: mean survival time, dose: 200.0 mg/kg/injection, schedule: Q01DX009 (ip), vehicle: Klucel (hydroxypropylcellulose) (HPC)): 92 % of control
- T/C (endpoint: mean survival time, dose: 200.0 mg/kg/injection, schedule: Q04DX003 (ip), vehicle: Klucel (hydroxypropylcellulose) (HPC)): 95 % of control
- T/C (endpoint: mean survival time, dose: 400.0 mg/kg/injection, schedule: Q01DX009 (ip), vehicle: Klucel (hydroxypropylcellulose) (HPC)): 100 % of control
- T/C (endpoint: mean survival time, dose: 400.0 mg/kg/injection, schedule: Q04DX003 (ip), vehicle: Klucel (hydroxypropylcellulose) (HPC)): 95 % of control
